Data from patent US20200163995A1, “PHAR[…] AND USES THEREOF” (Johnpro Biotech Inc., priority 2017, published 2020).
Read-outs that look alike come from different tables or passages of the source.

Columns and labels:
[1] = test system: CEA expression on cancer cells; assay: Determination of CEA expression on cancer cells by flow cytometry after drug treatment; assay type: cell-based, Human; conditions: data not shown
Protocol: The expression level of CEA on cancer cells were determined by flow cytometry. Cancer cells were stained with the human CEA-specific antibody followed by the analysis of flow cytometry. The fluorescence intensities of at least 10^5 cells were recorded and analyzed by software. Geometric mean was chosen as mean fluorescence intensity (MFI).
(§1) In this example, cancer cells were first treated with various types of anti-cancer drugs, before been subject to the treatment of NK92MI-CEA cells.

HCT116 cells [2] = test system: HCT116 cells
Protocol: In this experiment, the cancer cells (i.e., HCT116 or WiDr cells) and the NK cells (i.e., NK92MI or NK92MI-CEA cells) respectively served as the target and effector cells. In brief, the target cells were co-incubated with the effector cells at various effector/target ratios (E/T), including 10:1, 5:1, 1:1, and 0.5:1, in a round-bottom 96-well culture plate. After incubating at 37° C. for 24 hours, 50 μl of the supernatant was isolated and mixed with 50 μl of CYTOTOX 96® Reagent in a flat-bottom 96-well enzymatic assay plate. The mixture was incubated at room temperature for 30 minutes followed by adding 50 μl stop solution (H2SO4) to stop the reaction. The absorbance was measured at 490 nm. The percentage of cytotoxicity for each effector:target cell ratio was calculated by the equation of,
(Experimental−culture medium background)−(Effector cell spontaneous release−culture medium background)−(Target spontaneous release−culture medium background)/(Target maximum release−volume correction control−Target spontaneous release−culture medium background)×100.

HCT116 cells [3] = assay: 5-fluorouracil IC50 in HCT116 cells alone or co-treated with sodium butyrate or 5-azacytidine; assay type: cell-based, Human; conditions: for induction of drug resistance (5-fluorouracil) in cancer cells: HCT116 and WiDr cells, co-treatment with 5-fluorouracil 72 hours, sodium butyrate 0.1 mM, 5-azacytidine 1 μM
Protocol: (§2) Human colon cancer cell line LS174T (ATCC® CL-188™) and WiDr cells (ATCC CCL-218™) were maintained in alpha modification of Eagle's minimum essential medium (α-MEM) containing 1.5 g/L sodium bicarbonate and 10% fetal bovine serum (FBS). HCT116 cells (ATCC® CCL-247™) were cultured in McCoy's 5A medium containing 1.5 g/L sodium bicarbonate, 4.5 g/L glucose, 10 mM HEPES, 1.0 mM sodium pyruvate and 10% FBS. The NK92MI and NK92MI-CEA cells were cultured in α-MEM supplemented with 1.5 g/L sodium bicarbonate, 0.2 mM inositol, 0.02 mM folic acid, 0.01 mM 2-mercaptoethanol, 10% FBS and 12.5% horse serum. All cells were incubated at 37° C. in a humidified incubator with 5% CO2.
(§3) HCT116 and WiDr cells were co-treated with sodium butyrate (0.1 mM) or 5-azacytidine (1 μM) and different concentration of 5-fluorouracil (1.2, 2.4, 4.8, 9.6, and 19.2 μM) for 72 hours.

cancer cells = assay: Resistance of drug-treated cancer cells to chemotherapy and radiation therapy (data not shown); assay type: cell-based
From the text: as §1

WiDr cells [4] = assay: 5-fluorouracil IC50 in WiDr cells alone or co-treated with sodium butyrate or 5-azacytidine; assay type: cell-based; conditions: Homo sapiens, 72 hours, co-treatment sodium butyrate 0.1 mM or 5-azacytidine 1 μM, three independent experiments, read-out: IC50 of 5-fluorouracil (μM) Mean ± SD
Protocol: as §2, §3

WiDr cells [5] = assay: WiDr xenograft in SCID mice, tumor volume; assay type: in vivo; conditions: SCID mice with WiDr tumors
Protocol: 2×10^6 WiDr cells were subcutaneously implanted on the back of 9-weeks-old SCID mice. When tumors reached a volume of 100-200 mm^3, the mice were intraperitoneally administered with 200 mg/kg sodium butyrate for 5 consecutive days. Then, the mice were assigned into five groups: (1) control group, in which the mice were orally administrated with PBS every day, and intraperitoneally administrated with PBS every 4 days; (2) NaB group, in which the mice were orally administrated with 5 g/kg sodium butyrate every day, and intraperitoneally administrated with PBS every 4 days; (3) NK92MI group, in which the mice were orally administrated with PBS every day, and intraperitoneally administrated with NK92MI cells every 4 days; (4) NK92MI-CEA group, in which the mice were orally administrated with PBS every day, and intraperitoneally administration with NK92MI-CEA cells every 4 days; and (5) NK92MI-CEA+NaB group, in which the mice were orally administration with 5 g/kg sodium butyrate every day, and intraperitoneally administration with NK92MI-CEA every 4 days. Tumor volume of the mice was measured every 2-3 days, and tumor volumes on were calculated using the formula: length×(width)^2÷2 (*p<0.05). […]
The in vivo anti-tumor activity of NK92MI-CEA cells was evaluated in this example. […]

[6] = test system: serum circulating CEA (cCEA); assay: Serum circulating CEA (ELISA) in WiDr tumor-bearing SCID mice; assay type: in vivo; conditions: FIG. 4C, control group 520 pg/ml

Row | Structure (SMILES) | CEA expression on cancer cells [1] | enhancement of cytotoxic effect of NK92MI-CEA cells (HCT116 cells [2]) | induction of drug resistance (5-fluorouracil) in cancer cells (HCT116 cells [3]) | resistance of cancer cells to chemotherapy and radiation therapy (cancer cells) | IC50 (WiDr cells [4]) | IC50 (HCT116 cells [3]; Homo sapiens, HCT-116, HCT116 cells, 72 hours, co-treatment sodium butyrate 0.1 mM or 5-azacytidine 1 μM, three independent experiments, read-out: IC50 of 5-fluorouracil (μM) Mean ± SD) | tumor growth (FIG. 4A) (WiDr cells [5]; NK cells i.p. every 4 days, sodium butyrate 5 g/kg orally every day) | tumour growth / tumour size (FIG. 4B) (WiDr cells [5]; compared to control group) | enhancement of cytotoxic effect of NK92MI-CEA cells (HCT116 cells [2]; HCT116 cells treated with agent, E/T ratio 10:1, 5:1, 1:1 or 0.5:1, versus control and untreated groups, FIGS. 3A, 3B) | concentration of cCEA in the serum of mice [6]
1 | Nc1ncn([C@@H]2O[C@H](CO)[C@@H](O)[C@H]2O)c(=O)n1 [5-azacytidine] | significantly increased CEA expression | significantly enhanced cytotoxic effect | induced drug resistance in cancer cells | rendered the cancer cells resistant to the chemotherapy and radiation therapy | – | – | – | – | – | –
2 | O=c1[nH]cc(F)c(=O)[nH]1 [5-fluorouracil] | – | – | – | – | 4.67 ± 0.55 µM | 4.39 ± 3.1 µM | – | – | – | –
3 | CCCC(=O)[O-].[Na+] [sodium butyrate] | significantly increased CEA expression | – | induced drug resistance in cancer cells | rendered the cancer cells resistant to the chemotherapy and radiation therapy | – | – | obviously enhanced the anti-tumor effect of NK92MI-CEA cells | did not obviously inhibit tumour growth | significantly enhanced cytotoxic effect | 990 pg/mL
